Assay results reported in article PMC9005804, “GPR105-Targeted Therapy Promotes Gout Resolution as a Switch Between NETosis and Apoptosis of Neutrophils” (Frontiers in Immunology, 2022).

Target: T1, GPR105 (Homo sapiens, UniProt Q15391)
T1 construct: gene P2RY14
T1 sequence (Q15391 1-338): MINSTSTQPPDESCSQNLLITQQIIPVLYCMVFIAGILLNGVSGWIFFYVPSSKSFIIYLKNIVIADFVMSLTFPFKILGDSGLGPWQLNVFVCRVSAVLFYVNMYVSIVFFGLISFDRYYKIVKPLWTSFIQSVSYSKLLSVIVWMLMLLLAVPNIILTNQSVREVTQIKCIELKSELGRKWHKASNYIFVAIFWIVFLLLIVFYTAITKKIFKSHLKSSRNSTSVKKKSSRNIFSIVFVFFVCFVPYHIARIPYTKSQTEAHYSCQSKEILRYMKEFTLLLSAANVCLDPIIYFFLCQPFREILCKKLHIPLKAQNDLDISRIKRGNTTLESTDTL
Assay: cAMP-Glo luminescence assay in HEK293-hGPR105 cells (forskolin plus UDPG stimulated), antagonism
Format: cell-based

- IC50: 5.1 µM
Compound: C/C=C/C#CC#C[C@@H](O)[C@@H](/C=C/CCCO)O[C@@H]1O[C@H](CO)[C@@H](O)[C@H](O)[C@H]1O [LBT, lobetyolin]
